Results published in publication PMC4187030, “Effect of cyclodextrin complexation on phenylpropanoids’ solubility and antioxidant activity” (Beilstein Journal of Organic Chemistry, 2014).
≈ marks a conversion by molar mass, not a printed value. Like-named read-outs stand apart in the source and are kept apart here.

Tests used:
[1] = Phase solubility studies, CRYSMEB
Experimental: (§1) Phase solubility studies were carried out according to the method described by Higuchi and Connors. Excess amount of PP was added to 1 mL of CD solution at different concentrations ranging from 0 to 10 mM. The mixtures were shaken at 25 °C for 24 h then filtered through a 0.45 μm membrane filter. The concentration of PP in the filtrate was determined spectrophotometrically at the maximum wavelength corresponding to each PP. Phase solubility diagrams were obtained by plotting the solubility of PP as a function of CD concentration. Kf value of CD/PP inclusion complex was calculated from the linear segment of the phase–solubility diagrams using the following equation: […]
(§2) where S0 is the intrinsic solubility of PP in the absence of CD and the Slope is the slope of the phase–solubility profile. The solubilizing potential of CD was evaluated by the complexation efficiency (CE) parameter. CE equal the complex to free CD concentration ratio and was calculated from the slope of the phase solubility diagram: […]
(§3) where [CD/PP] is the concentration of dissolved inclusion complex and [CD] is the concentration of dissolved free CD. The CE can be used to calculate the PP:CD ratio as follows:
(§4) The correlation between the CE and the molecular weight of CD or guest allowed the determination of the increase in formulation bulk which can be calculated using the following equation: […]
(§5) where MWCD and MWPP are the molecular weight values of CD and PP, respectively.

[2] = Formation constants (Kf) by UV–visible spectral displacement method, RAMEB; assay type: physicochemical; settings: UV–visible spectral displacement with MO (MO itself by direct titration), SD <10%
Experimental: (§6) Formation constant (Kf) values were calculated using a UV–visible spectral displacement method. This method implies first the characterization of the inclusion complexes between CDs and the competitor (methyl orange, MO). The results are summarized in Table 1 in comparison with values from the literature.
(§7) The UV–visible competition method with methyl orange (MO) as competitor was carried out according to the method described by Landy et al.. In order to calculate CD/PP Kf values, CD/MO inclusion complexes were firstly characterized by a direct titration method. Then, a spectral displacement method was applied by adding PP to a solution containing constant concentration of MO and CD. The addition of PP implied an absorbance increment leading to the calculation of CD/PP Kf values. Spectra were recorded between 520–530 nm for a MO concentration fixed at 0.1 mM. This wavelength range corresponds to the optimal spectral variation between the absorbance of free and complexed forms of MO. All Kf values were calculated by an algorithmic treatment applied to the first derivatives of UV spectra in order to avoid any spectral influence of diffraction phenomena. Absorption studies were performed using a UV–visible dual-beam spectrophotometer (Perkin Elmer Lambda 2S) with a 1 cm thick quartz cuvette.

[3] = Formation constants (Kf) by UV–visible spectral displacement method, β-CD; assay type: physicochemical; settings: UV–visible spectral displacement with MO (MO itself by direct titration), SD <10%
Experimental: as §6, §7

[4] = Formation constants (Kf) by UV–visible spectral displacement method, HP-β-CD; assay type: physicochemical; settings: UV–visible spectral displacement with MO (MO itself by direct titration), SD <10%
Experimental: as §6, §7

[5] = Formation constants (Kf) by UV–visible spectral displacement method, α-CD; assay type: physicochemical; settings: UV–visible spectral displacement with MO (MO itself by direct titration), SD <10%
Experimental: as §6, §7

[6] = Formation constants (Kf) by UV–visible spectral displacement method, CRYSMEB; assay type: physicochemical; settings: UV–visible spectral displacement with MO (MO itself by direct titration), SD <10%
Experimental: as §6, §7

[7] = Phase solubility studies, RAMEB
Experimental: as §1, §2, §3, §4, §5

[8] = design: method as in earlier work; settings: cited from earlier work
[9] = β-CD, cited from earlier work
[10] = α-CD, cited from earlier work
[11] = DPPH radical scavenging activity; settings: for Change of DPPH radical scavenging activity upon complexation with CDs: PP in 10 mM CD solution vs water; for Kinetic behavior of reaction with DPPH•: PP with ethanolic DPPH• solution; for DPPH radical scavenging (antioxidant) activity of PP alone: absence of CD, 1 h (3, 4, 6, 7) or 15 h (1, 2, 5), 25 °C
Experimental: The 2,2-diphenyl-1-picrylhydrazyl (DPPH) radical scavenging activity of PP and their inclusion complexes was measured using the method described by Brand-Williams, Cuvelier, and Berset (1995) with some modifications. 1 mg of PP was dissolved in 50 mL of water, or 10 mM CD solution. 2 mL aliquot of the solution was vigorously mixed with 2 mL of ethanolic DPPH^• solution (0.1 mM). […]. Blank sample was prepared by mixing 2 mL of distilled water with 2 mL of DPPH^• solution. The scavenging activity was calculated using the following equation: […]
where As and A0 are the absorbance of sample and blank sample, respectively.

[12] = HP-β-CD, cited from earlier work
[13] = Phase solubility studies, HP-β-CD
Experimental: as §1, §2, §3, §4, §5

[14] = Phase solubility studies, β-CD
Experimental: as §1, §2, §3, §4, §5

[15] = Experimental: as §1, §2, §3, §4, §5
[16] = Intrinsic solubility (S0) of PP in water; assay type: physicochemical; settings: thermodynamic from solid, absence of CD, 25 °C
Experimental: as §1, §2

[17] = RAMEB, cited from earlier work
[18] = CRYSMEB, cited from earlier work

Compound | Formation constant (Kf) [2] [M⁻¹] | Formation constant (Kf) [3] [M⁻¹] | Formation constant (Kf) [4] [M⁻¹] | Formation constant (Kf) [5] [M⁻¹] | Formation constant (Kf) [6] [M⁻¹] | log P [8] | Change of DPPH radical scavenging activity upon complexation with CDs [11] | Kinetic behavior of reaction with DPPH• [11] | DPPH radical scavenging (antioxidant) activity of PP alone [11] | further results
low methylated β-cyclodextrin [CRYSMEB] | – | – | – | – | – | – | – | – | – | CE mean value [1]: 1.21
CN(C)c1ccc(N=Nc2ccc(S(=O)(=O)[O-])cc2)cc1.[Na+] [MO, methyl orange, reference compound] | 15400 | 2386 | 5597 | 7810 | 3594 | – | – | – | – | –
randomly methylated β-cyclodextrin [RAMEB] | – | – | – | – | – | – | – | – | – | CE mean value [7]: 1.70
COc1cc(/C=C/C(=O)O)ccc1O [Ferulic acid (7), ferulic acid] | 908 | 246 | 451 | 1769 | 474 | 1.249 | kept unchanged | reacted rapidly | higher antioxidant activity | Formation constant (Kf) ([9]; ref 30): 205 M⁻¹; Formation constant (Kf) ([10]; ref 29): 1162 M⁻¹; Formation constant (Kf) ([12]; ref 30): 590 M⁻¹
CC(O)COC[C@H]1O[C@@H]2O[C@H]3[C@H](O)[C@@H](O)[C@@H](O[C@H]4[C@H](O)[C@@H](O)[C@@H](O[C@H]5[C@H](O)[C@@H](O)[C@@H](O[C@H]6[C@H](O)[C@@H](O)[C@@H](O[C@H]7[C@H](O)[C@@H](O)[C@@H](O[C@H]8[C@H](O)[C@@H](O)[C@@H](O[C@H]1[C@H](O)[C@H]2O)O[C@@H]8COCC(C)O)O[C@@H]7COCC(C)O)O[C@@H]6COCC(C)O)O[C@@H]5COCC(C)O)O[C@@H]4COCC(C)O)O[C@@H]3COCC(C)O (stereo partly drawn) [HP-β-CD, hydroxypropyl-β-cyclodextrin] | – | – | – | – | – | – | – | – | – | CE mean value ([13]; HP-β-CD, mean over the studied PPs): 1.42
OC[C@H]1O[C@@H]2O[C@H]3[C@H](O)[C@@H](O)[C@@H](O[C@H]4[C@H](O)[C@@H](O)[C@@H](O[C@H]5[C@H](O)[C@@H](O)[C@@H](O[C@H]6[C@H](O)[C@@H](O)[C@@H](O[C@H]7[C@H](O)[C@@H](O)[C@@H](O[C@H]8[C@H](O)[C@@H](O)[C@@H](O[C@H]1[C@H](O)[C@H]2O)O[C@@H]8CO)O[C@@H]7CO)O[C@@H]6CO)O[C@@H]5CO)O[C@@H]4CO)O[C@@H]3CO [β-CD, β-cyclodextrin] | – | – | – | – | – | – | – | – | – | CE mean value [14]: 0.91
isoeugenol [Isoeugenol (3)] | – | – | – | – | – | – | kept unchanged | reacted rapidly | higher antioxidant activity | –
C=CCc1ccc(OC)cc1 [Estragole (2), estragole] | 1916 | 987 | 1508 | 335 | 1584 | 2.818 | increase in activity | slow kinetic behavior | reacted little | Increase in formulation bulk [15]: 36; Kf [15]: 682 M⁻¹; Increase in formulation bulk [7]: 26; Kf [7]: 1694 M⁻¹; Increase in formulation bulk [1]: 25; Kf [1]: 1512 M⁻¹; Increase in formulation bulk [13]: 32; Kf [13]: 1412 M⁻¹; Increase in formulation bulk [14]: 35; Kf [14]: 882 M⁻¹
O=C(O)/C=C/c1ccc(O)c(O)c1 [Caffeic acid (6), caffeic acid] | 991 | 318 | 526 | 1540 | 404 | – | kept unchanged | reacted rapidly | higher antioxidant activity | Increase in formulation bulk [15]: 7; Kf [15]: 1819 M⁻¹; solubility at 24 h [16]: 300 µg/mL (≈ 1670 µM); Formation constant (Kf) ([9]; ref 26): 278 M⁻¹; Formation constant (Kf) ([9]; ref 27): 516 M⁻¹; Increase in formulation bulk ([7]; RAMEB, from CE and molecular weights): 13; Kf ([7]; RAMEB, from slope of phase solubility diagram and S0, 25 °C): 825 M⁻¹; Increase in formulation bulk ([1]; CRYSMEB, from CE and molecular weights): 14; Kf ([1]; CRYSMEB, from slope of phase solubility diagram and S0, 25 °C): 552 M⁻¹; Increase in formulation bulk ([13]; HP-β-CD, from CE and molecular weights): 18; Kf ([13]; HP-β-CD, from slope of phase solubility diagram and S0, 25 °C): 534 M⁻¹; Kf [14]: 425 M⁻¹; Increase in formulation bulk ([14]; β-CD, from CE and molecular weights): 15; Formation constant (Kf) ([12]; ref 28): 279 M⁻¹
C/C=C/c1ccc(OC)cc1 [trans-Anethole (1), trans-anethole] | 1815 | 542 | 845 | 927 | 1039 | 3.096 | increase in activity | slow kinetic behavior | reacted little | Formation constant (Kf) ([9]; ref 11): 630 M⁻¹; Formation constant (Kf) ([9]; ref 23): 497 M⁻¹; Formation constant (Kf) ([10]; ref 11): 1163 M⁻¹; Formation constant (Kf) ([10]; ref 23): 710 M⁻¹; Formation constant (Kf) ([17]; ref 11): 1553 M⁻¹; Formation constant (Kf) ([17]; ref 23): 1110 M⁻¹; Formation constant (Kf) ([18]; ref 11): 740 M⁻¹; Formation constant (Kf) ([18]; ref 23): 877 M⁻¹; Formation constant (Kf) ([12]; ref 11): 1042 M⁻¹; Formation constant (Kf) ([12]; ref 23): 981 M⁻¹
